Patent publication US10597388B2, “Pyridazinone herbicides” (FMC CORPORATION, priority 2014, dated 2020)

Experiments:
Assay type in all cases: in vivo
[1] = tested on: wheat, spring (spring wheat, Triticum aestivum); test: Test D controlled growth environment herbicide test, pre- and postemergence; conditions: for Wheat, Spring plant response rating / Plant response rating (scale of 0 to 100), Wheat, Spring: 31 g ai/ha
Summary of the method: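 Species sown in silt loam and sprayed preemergence, or grown in peat-based medium to 2–18 cm (1- to 4-leaf stage) and sprayed postemergence, with compounds in non-phytotoxic solvent plus surfactant. Visual injury scored versus controls after 14–21 d in a controlled environment, 0 (no effect) to 100 (complete control).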

[2] = tested on: panicum, fall (fall panicum, Panicum dichotomiflorum); test: Test E greenhouse herbicide test, pre- and postemergence
Source text: (§1) Seeds of plant species selected from corn (Zea mays), soybean (Glycine max), velvetleaf (Abutilon theophrasti), lambsquarters (Chenopodium album), wild poinsettia (Euphorbia heterophylla), pigweed, palmer (palmer pigweed, Amaranthus palmeri), waterhemp (common waterhemp, Amaranthus rudis), surinam grass (Brachiaria decumbens), crabgrass, large (large crabgrass, Digitaria sanguinalis), crabgrass, Brazilian (Brazilian crabgrass, Digitaria horizontalis), panicum, fall (fall panicum, Panicum dichotomiflorum), foxtail, giant (giant foxtail, Setaria faberii), foxtail, green (green foxtail, Setaria viridis), goosegrass (Eleusine indica), johnsongrass (Sorghum halepense), ragweed (common ragweed, Ambrosia elatior), barnyardgrass (Echinochloa crus-galli), sandbur (southem sandbur, Cenchrus echinatus), arrowleaf sida (Sida rhombifolia), Italian ryegrass (Lolium multiflorum), dayflower (Virginia (VA) dayflower, Commelina virginica), field bindweed (Convolvulus arvensis), momingglory (Ipomoea coccinea), nightshade (eastern black nightshade, Solanum ptycanthum), kochia (Kochia scoparia), nutsedge, yellow (yellow nutsedge, Cyperus esculentus), horseweed (Conyza canadensis), and beggarticks (hairy beggarticks, Bidens pilosa), were planted into a silt loam soil and treated preemergence with test chemicals formulated in a non-phytotoxic solvent mixture which included a surfactant.
(§2) At the same time, plants from these crop and weed species and also waterhemp_RES1, (ALS & Triazine resistant common waterhemp, Amaranthus rudis), and waterhemp_RES2, (ALS & HPPD resistant common waterhemp, Amaranthus rudis) were planted in pots containing Redi-Earth® planting medium (Scotts Company, 14111 Scottslawn Road, Marysville, Ohio 43041) comprising spaghnum peat moss, vermiculite, wetting agent and starter nutrients were treated with postemergence applications of test chemicals formulated in the same manner. Plants ranged in height from 2 to 18 cm for postemergence treatments (1- to 4-leaf stage). Treated plants and controls were maintained in a greenhouse for 14 to 21 d, after which time all species were compared to controls and visually evaluated. Plant response ratings, summarized in Table E, are based on a scale of 0 to 100 where 0 is no effect and 100 is complete control. A dash (-) response means no test result.

[3] = tested on: dayflower (Virginia (VA) dayflower, Commelina virginica); test: as above
Source text: as §1, §2

soybean (Glycine max) = test: as above
Source text: as §1, §2

[4] = tested on: beggarticks (hairy beggarticks, Bidens pilosa); test: as above
Source text: as §1, §2

[5] = tested on: momingglory (Ipomoea coccinea); test: as above; conditions: Preemergence
Source text: as §1, §2

[6] = tested on: lambsquarters (Chenopodium album); test: as above; conditions: Preemergence
Source text: as §1, §2

[7] = tested on: field bindweed (Convolvulus arvensis); test: as above
Source text: as §1, §2

[8] = tested on: arrowleaf sida (Sida rhombifolia); test: as above
Source text: as §1, §2

[9] = tested on: horseweed (Conyza canadensis); test: as above; conditions: Postemergence
Source text: as §1, §2

[10] = Postemergence, scale 0 to 100 (0 no effect, 100 complete control)
[11] = Postemergence, 125 g ai/ha, visual rating on scale 0 (no effect) to 100 (complete control), 14 to 21 d
[12] = Postemergence, 250 g ai/ha, scale 0 to 100 (0 no effect, 100 complete control)
[13] = Preemergence, 62 g ai/ha, scale 0 to 100 (0 no effect, 100 complete control)
[14] = Preemergence, 125 g ai/ha, scale 0 to 100 (0 no effect, 100 complete control)
[15] = Preemergence, 250 g ai/ha, scale 0 to 100 (0 no effect, 100 complete control)
[16] = postemergence, 62 g ai/ha, scale 0 to 100, 0 no effect, 100 complete control
[17] = 62 g ai/ha, Postemergence, scale 0 to 100 (0 no effect, 100 complete control)
[18] = 62 g ai/ha, Preemergence, scale 0 to 100 (0 no effect, 100 complete control)
[19] = 125 g ai/ha, Postemergence, scale 0 to 100 (0 no effect, 100 complete control)
[20] = 125 g ai/ha, Preemergence, scale 0 to 100 (0 no effect, 100 complete control)
[21] = 250 g ai/ha, Postemergence, scale 0 to 100 (0 no effect, 100 complete control)
[22] = Postemergence, 16 g ai/ha, visual, scale 0 no effect to 100 complete control
[23] = Postemergence, 31 g ai/ha, visual, scale 0 no effect to 100 complete control
[24] = Preemergence, 16 g ai/ha, scale 0 to 100, 0 no effect, 100 complete control
[25] = Preemergence, 31 g ai/ha, scale 0 to 100, 0 no effect, 100 complete control
[26] = Preemergence, 250 g ai/ha, visual, scale 0 no effect to 100 complete control
[27] = Preemergence, 125 g ai/ha, visual, scale 0 no effect to 100 complete control
[28] = 62 g ai/ha, scale 0 to 100 (0 no effect, 100 complete control)
[29] = 125 g ai/ha, scale 0 to 100 (0 no effect, 100 complete control)
[30] = 16 g ai/ha, scale 0 to 100, 0 no effect, 100 complete control
[31] = 31 g ai/ha, scale 0 to 100, 0 no effect, 100 complete control
[32] = 250 g ai/ha, visual, scale 0 no effect to 100 complete control

For `Cc1ccc2sc(C)c(-c3c(O)c(C)nn(C)c3=O)c2c1` [Compound 1, 4-(2,5-dimethylbenzo[b]thien-3-yl)-5-hydroxy-2,6-dimethyl-3(2H)-pyridazinone], the “Wheat, Spring plant response rating” value [1, 10] was 0, the “Plant response rating, Wheat, Spring” value [1, 11] was 10 and the “Plant response rating, Wheat, Spring” value [1, 12] was 15. For the same molecule, the “Plant response rating (scale of 0 to 100), Wheat, Spring” value ([1]; Preemergence) was 0, the “Plant response rating, Wheat, Spring” value [1, 13] was 0 and the “Plant response rating, Wheat, Spring” value [1, 14] was 0. The “Plant response rating, Wheat, Spring” value [1, 15] was 10, the “Plant response rating, Wheat, Spring” value [1, 16] was 0 and the “Plant response rating, Panicum, Fall” value [2, 17] was 75. The “Plant response rating, Panicum, Fall” value [2, 18] was 90, the “Plant response rating, Panicum, Fall” value [2, 19] was 80 and the “Plant response rating, Panicum, Fall” value [2, 20] was 95. For the same molecule, the “Plant response rating, Panicum, Fall” value [2, 21] was 85, the “Plant response rating, Panicum, Fall” value [2, 22] was 70 and the “Plant response rating, Panicum, Fall” value [2, 23] was 75. The “Plant response rating, Panicum, Fall” value [2, 24] was 65, the “Plant response rating, Panicum, Fall” value [2, 25] was 75 and the “Plant response rating, Panicum, Fall” value [2, 26] was 100. The “Plant response rating, Dayflower, VA” value [3, 17] was 0, the “Plant response rating, Dayflower, VA” value [3, 18] was 20 and the “Plant response rating, Dayflower, VA” value [3, 19] was 30. For the same molecule, the “Plant response rating, Dayflower, VA” value [3, 21] was 50, the “Plant response rating, Dayflower, VA” value [3, 22] was 0 and the “Plant response rating, Dayflower, VA” value [3, 23] was 0. The “Plant response rating, Dayflower, VA” value [3, 24] was 0, the “Plant response rating, Dayflower, VA” value [3, 25] was 0 and the “Plant response rating, Dayflower, VA” value [3, 27] was 15. The “Plant response rating, Dayflower, VA” value [3, 26] was 25, the “Plant response rating, Soybean” value (soybean (Glycine max); [17]) was 10 and the “Plant response rating, Soybean” value (soybean (Glycine max); [18]) was 15. The “Plant response rating, Soybean” value (soybean (Glycine max); [19]) was 15, the “Plant response rating, Soybean” value (soybean (Glycine max); [20]) was 40 and the “Plant response rating, Soybean” value (soybean (Glycine max); [21]) was 20. The “Plant response rating, Soybean” value (soybean (Glycine max); [22]) was 0, the “Plant response rating, Soybean” value (soybean (Glycine max); [23]) was 0 and the “Plant response rating, Soybean” value (soybean (Glycine max); [24]) was 0. For the same molecule, the “Plant response rating, Soybean” value (soybean (Glycine max); [25]) was 0, the “Plant response rating, Soybean” value (soybean (Glycine max); [26]) was 75 and the “Plant response rating, Beggarticks” value [4, 17] was 98. The “Plant response rating, Beggarticks” value [4, 18] was 100, the “Plant response rating, Beggarticks” value [4, 19] was 100 and the “Plant response rating, Beggarticks” value [4, 21] was 100. The “Plant response rating, Beggarticks” value [4, 22] was 70, the “Plant response rating, Beggarticks” value [4, 23] was 85 and the “Plant response rating, Beggarticks” value [4, 24] was 100. For the same molecule, the “Plant response rating, Beggarticks” value [4, 25] was 100, the “Plant response rating, Beggarticks” value [4, 27] was 100 and the “Plant response rating, Beggarticks” value [4, 26] was 100. The “Plant response rating, Morningglory” value [5, 28] was 98, the “Plant response rating, Morningglory” value [5, 29] was 90 and the “Plant response rating, Morningglory” value [5, 30] was 20. The “Plant response rating, Morningglory” value [5, 31] was 60, the “Plant response rating, Morningglory” value [5, 32] was 100 and the “Plant response rating, Lambsquarters” value [6, 28] was 98. The “Plant response rating, Lambsquarters” value [6, 30] was 65, the “Plant response rating, Lambsquarters” value [6, 31] was 65 and the “Plant response rating, Lambsquarters” value ([6]; 125 g ai/ha, visual, scale 0 no effect to 100 complete control) was 100. For the same molecule, the “Plant response rating, Lambsquarters” value [6, 32] was 100, the “Plant response rating, Field Bindweed” value [7, 17] was 70 and the “Plant response rating, Field Bindweed” value [7, 18] was 80. For the same molecule, the “Plant response rating, Field Bindweed” value [7, 19] was 85, the “Plant response rating, Field Bindweed” value [7, 21] was 95 and the “Plant response rating, Field Bindweed” value [7, 22] was 65. The “Plant response rating, Field Bindweed” value [7, 23] was 65, the “Plant response rating, Field Bindweed” value [7, 24] was 5 and the “Plant response rating, Field Bindweed” value [7, 25] was 20. The “Plant response rating, Field Bindweed” value [7, 27] was 95, the “Plant response rating, Field Bindweed” value [7, 26] was 100 and the “Plant response rating, Arrowleaf Sida” value [8, 17] was 70. For the same molecule, the “Plant response rating, Arrowleaf Sida” value [8, 18] was 65, the “Plant response rating, Arrowleaf Sida” value [8, 19] was 70 and the “Plant response rating, Arrowleaf Sida” value [8, 21] was 80. The “Plant response rating, Arrowleaf Sida” value [8, 22] was 30, the “Plant response rating, Arrowleaf Sida” value [8, 23] was 50 and the “Plant response rating, Arrowleaf Sida” value [8, 24] was 0. For the same molecule, the “Plant response rating, Arrowleaf Sida” value [8, 25] was 0, the “Plant response rating, Arrowleaf Sida” value [8, 27] was 75 and the “Plant response rating, Arrowleaf Sida” value [8, 26] was 80.
With `CCC(=O)Oc1c(C)nn(C)c(=O)c1-c1c(C)sc2ccc(C)cc12` [Compound 42] the “Wheat, Spring plant response rating” value [1, 10] was 0, the “Plant response rating, Wheat, Spring” value [1, 11] was 15 and the “Plant response rating, Wheat, Spring” value [1, 12] was 20. For the same molecule, the “Plant response rating (scale of 0 to 100), Wheat, Spring” value ([1]; Preemergence) was 0, the “Plant response rating, Wheat, Spring” value [1, 13] was 0 and the “Plant response rating, Wheat, Spring” value [1, 14] was 0. For the same molecule, the “Plant response rating, Wheat, Spring” value [1, 15] was 20, the “Plant response rating, Wheat, Spring” value [1, 16] was 10 and the “Plant response rating, Panicum, Fall” value [2, 17] was 50. The “Plant response rating, Panicum, Fall” value [2, 19] was 80, the “Plant response rating, Panicum, Fall” value [2, 21] was 95 and the “Plant response rating, Panicum, Fall” value [2, 23] was 60. For the same molecule, the “Plant response rating, Dayflower, VA” value [3, 17] was 50, the “Plant response rating, Dayflower, VA” value [3, 19] was 60 and the “Plant response rating, Dayflower, VA” value [3, 21] was 70. The “Plant response rating, Dayflower, VA” value [3, 23] was 30, the “Plant response rating, Soybean” value (soybean (Glycine max); [17]) was 20 and the “Plant response rating, Soybean” value (soybean (Glycine max); [19]) was 30. For the same molecule, the “Plant response rating, Soybean” value (soybean (Glycine max); [21]) was 50, the “Plant response rating, Soybean” value (soybean (Glycine max); [23]) was 10 and the “Plant response rating, Beggarticks” value [4, 17] was 95. The “Plant response rating, Beggarticks” value [4, 19] was 100, the “Plant response rating, Beggarticks” value [4, 21] was 100 and the “Plant response rating, Beggarticks” value [4, 23] was 95. The “Plant response rating, Horseweed” value [9, 28] was 75, the “Plant response rating, Horseweed” value [9, 29] was 75 and the “Plant response rating, Horseweed” value ([9]; 250 g ai/ha, scale 0 to 100 (0 no effect, 100 complete control)) was 85. The “Plant response rating, Horseweed” value ([9]; 31 g ai/ha, visual, scale 0 no effect to 100 complete control) was 75, the “Plant response rating, Field Bindweed” value [7, 17] was 85 and the “Plant response rating, Field Bindweed” value [7, 19] was 90. The “Plant response rating, Field Bindweed” value [7, 21] was 90, the “Plant response rating, Field Bindweed” value [7, 23] was 90 and the “Plant response rating, Arrowleaf Sida” value [8, 17] was 60. For the same molecule, the “Plant response rating, Arrowleaf Sida” value [8, 19] was 70, the “Plant response rating, Arrowleaf Sida” value [8, 21] was 80 and the “Plant response rating, Arrowleaf Sida” value [8, 23] was 20.
